Measured values reported in article PMC12731105, “Design and Synthesis of New Quinoxaline Analogs to Regenerate Sensory Auditory Hair Cells” (Cells, 2025).

Assays:
[1] = test system: zebrafish neuromast cells; test: TUNEL assay in zebrafish neuromasts; assay type: in vivo, zebrafish (Danio rerio); conditions: 400 μM, 6 h
Procedure: Absorbance was measured with SpectraMax® M Series Multi-Mode Microplate Reader with Soft Max Pro 7.2 GxP Software (Molecular Devices, Sunnyvale, CA, USA), and the average OD in control cells was taken as 100% of viability. […] Mice treatment followed the same procedures as described in [18]. Following treatment, animals or tissue samples were incubated in Click-it EdU or Click-it Plus TUNEL kits (Thermo Scientific, Waltham, MA, USA), following the manufacturer’s instructions to label proliferating and apoptotic cells, respectively.

HEI-OC1 cells = test: TACS MTT cell proliferation / metabolic activity assay in HEI-OC1; assay type: cell-based, mouse; conditions: for Proliferative effect and metabolic activity at low concentrations: 0.1 μM to 5 μM, 24 h incubation, also stated for Neuro-2A and HT-1080; for Proliferative effect vs Qx-70 and untreated cells: HEI-OC1, TACS MTT; for Metabolic and proliferative activities at high concentrations: concentrations higher than 5 μM, across all three lines
Procedure: (§1) HEI-OC1 cells derived from the mouse OC (kindly provided by Dr. F. Kalinec) were cultured under permissive conditions (33 °C, 10% CO2) as described in [22]. Additionally, we assessed the activity of Qx-derived compounds in the mouse neuroblastoma cell line, Neuro-2A, and the human fibrosarcoma HT-1080 (ATCC, Manassas, VA, USA) following the standard cell culture guidelines provided by the vendor.
(§2) In vitro cell proliferation effects of all ten initial compounds (Figure 1A,B) were tested on HEI-OC1, Neuro-2A and HT-1080 cells by TACS® 3-(4,5-dimethylthiazol-2-yl)-2,5-diphenyltetrazolium bromide (MTT) Cell Proliferation Assay (R&D Systems, Minneapolis, MN, USA, 4890-025-K), following the manufacturer’s protocol. Absorbance was measured with SpectraMax® M Series Multi-Mode Microplate Reader with Soft Max Pro 7.2 GxP Software (Molecular Devices, Sunnyvale, CA, USA), and the average OD in control cells was taken as 100% of viability. Upon selecting the most viable compounds (Qx-294 and Qx-301), we proceeded with in vivo experiments. For zebrafish treatment, animals were incubated for varied times with different concentrations (50, 100, 150, 200, 250, and 300 μg/mL) of Qx-294 or Qx-301 diluted in swimming (E3) media or administered via IP injections. Mice treatment followed the same procedures as described in [18]. Following treatment, animals or tissue samples were incubated in Click-it EdU or Click-it Plus TUNEL kits (Thermo Scientific, Waltham, MA, USA), following the manufacturer’s instructions to label proliferating and apoptotic cells, respectively.

Neuro-2A = test: TACS MTT cell proliferation / metabolic activity assay in Neuro-2A; assay type: cell-based, mouse; conditions: for Increase in MTT absorbance compared to DMSO controls and untreated cells: low-dose exposure (≤5 μM); for MTT absorbance change at higher concentrations: ≥5 μM
Procedure: as §1, §2

HT-1080 = test: TACS MTT cell proliferation / metabolic activity assay in HT-1080; assay type: cell-based, human; conditions: for Increase in MTT absorbance compared to DMSO controls and untreated cells: HT-1080, low-dose exposure (≤5 μM); for MTT absorbance change at higher concentrations: HT-1080, ≥5 μM
Procedure: as §1, §2

## N.N.[Cl][Pt][Cl] [cisplatin, reference compound]
[1]
  Cell death (TUNEL) in neuromasts, positive control: extensive cell death

## CCNc1cnc2ccccc2n1 [Qx-292, 2-(ethylamine)-quinoxaline]
HEI-OC1 cells
  Proliferative effect and metabolic activity at low concentrations: high proliferative effect and increased metabolic activity
  Proliferative effect vs Qx-70 and untreated cells: significant and reproducible proliferative effects greater than those of Qx-70 and the untreated cells
  Metabolic and proliferative activities at high concentrations: declined
Neuro-2A
  Increase in MTT absorbance compared to DMSO controls and untreated cells: ≤ 9%
  MTT absorbance change at higher concentrations: moderate reductions
HT-1080
  Increase in MTT absorbance compared to DMSO controls and untreated cells: ≤ 9%
  MTT absorbance change at higher concentrations: moderate reductions

## CC(=O)N1CCN(c2cnc3ccccc3n2)CC1 [Qx-296, 2-(4-acetylpiperazine)-quinoxaline]
HEI-OC1 cells
  Proliferative effect and metabolic activity at low concentrations: high proliferative effect and increased metabolic activity
  Proliferative effect vs Qx-70 and untreated cells: significant and reproducible proliferative effects greater than those of Qx-70 and the untreated cells
  Metabolic and proliferative activities at high concentrations: declined
Neuro-2A
  Increase in MTT absorbance compared to DMSO controls and untreated cells: ≤ 9%
  MTT absorbance change at higher concentrations: moderate reductions
HT-1080
  Increase in MTT absorbance compared to DMSO controls and untreated cells: ≤ 9%
  MTT absorbance change at higher concentrations: moderate reductions

## c1ccc2nc(N3CCSCC3)cnc2c1 [Qx-295, 2-(thiomorpholine)-quinoxaline]
HEI-OC1 cells
  Proliferative effect and metabolic activity at low concentrations: high proliferative effect and increased metabolic activity
  Proliferative effect vs Qx-70 and untreated cells: significant and reproducible proliferative effects greater than those of Qx-70 and the untreated cells
  Metabolic and proliferative activities at high concentrations: declined
Neuro-2A
  Increase in MTT absorbance compared to DMSO controls and untreated cells: ≤ 9%
  MTT absorbance change at higher concentrations: moderate reductions
HT-1080
  Increase in MTT absorbance compared to DMSO controls and untreated cells: ≤ 9%
  MTT absorbance change at higher concentrations: moderate reductions
